The source of these data is US20250179013A1, “INHIBITORS OF RNA HELICASE DHX9 AND USES THEREOF” (ACCENT THERAPEUTICS, INC., priority 2022, published 2025).

Read-outs that look alike come from different tables or passages of the source.

The EC50 is the concentration giving half of the maximal effect. A high value points to a need for much substance.

Assay [1] deals with T1, Human recombinant DHX9 protein (Homo sapiens, UniProt Q08211).
T1 construct: purchased Viva
Put plainly: DHX9 ATPase assay (ADP-Glo biochemical assay). As to conditions: for DHX9 Biochemical Max Inhibition: maximum inhibition in ATPase assay, 10 μM Aurintricarboxylic acid = 100%. For orientation: In ADP-Glo the light output rises with the ADP produced.

Assay [2] deals with DHX9 (circBRIP1 mRNA in HCT116 cells). The assay can be described thus: DHX9 circBRIP1 Cellular Target Engagement SYBR Green Assay. The format is cell-based. To be noted: Homo sapiens, HCT-116, circBRIP1 qPCR, 72 hours. For orientation: Quantitative PCR measures a nucleic acid by following its amplification.
Setting [3] is: read-out: DHX9 Biochemical Inflection Point.

T1 sequence (Q08211 whole entry): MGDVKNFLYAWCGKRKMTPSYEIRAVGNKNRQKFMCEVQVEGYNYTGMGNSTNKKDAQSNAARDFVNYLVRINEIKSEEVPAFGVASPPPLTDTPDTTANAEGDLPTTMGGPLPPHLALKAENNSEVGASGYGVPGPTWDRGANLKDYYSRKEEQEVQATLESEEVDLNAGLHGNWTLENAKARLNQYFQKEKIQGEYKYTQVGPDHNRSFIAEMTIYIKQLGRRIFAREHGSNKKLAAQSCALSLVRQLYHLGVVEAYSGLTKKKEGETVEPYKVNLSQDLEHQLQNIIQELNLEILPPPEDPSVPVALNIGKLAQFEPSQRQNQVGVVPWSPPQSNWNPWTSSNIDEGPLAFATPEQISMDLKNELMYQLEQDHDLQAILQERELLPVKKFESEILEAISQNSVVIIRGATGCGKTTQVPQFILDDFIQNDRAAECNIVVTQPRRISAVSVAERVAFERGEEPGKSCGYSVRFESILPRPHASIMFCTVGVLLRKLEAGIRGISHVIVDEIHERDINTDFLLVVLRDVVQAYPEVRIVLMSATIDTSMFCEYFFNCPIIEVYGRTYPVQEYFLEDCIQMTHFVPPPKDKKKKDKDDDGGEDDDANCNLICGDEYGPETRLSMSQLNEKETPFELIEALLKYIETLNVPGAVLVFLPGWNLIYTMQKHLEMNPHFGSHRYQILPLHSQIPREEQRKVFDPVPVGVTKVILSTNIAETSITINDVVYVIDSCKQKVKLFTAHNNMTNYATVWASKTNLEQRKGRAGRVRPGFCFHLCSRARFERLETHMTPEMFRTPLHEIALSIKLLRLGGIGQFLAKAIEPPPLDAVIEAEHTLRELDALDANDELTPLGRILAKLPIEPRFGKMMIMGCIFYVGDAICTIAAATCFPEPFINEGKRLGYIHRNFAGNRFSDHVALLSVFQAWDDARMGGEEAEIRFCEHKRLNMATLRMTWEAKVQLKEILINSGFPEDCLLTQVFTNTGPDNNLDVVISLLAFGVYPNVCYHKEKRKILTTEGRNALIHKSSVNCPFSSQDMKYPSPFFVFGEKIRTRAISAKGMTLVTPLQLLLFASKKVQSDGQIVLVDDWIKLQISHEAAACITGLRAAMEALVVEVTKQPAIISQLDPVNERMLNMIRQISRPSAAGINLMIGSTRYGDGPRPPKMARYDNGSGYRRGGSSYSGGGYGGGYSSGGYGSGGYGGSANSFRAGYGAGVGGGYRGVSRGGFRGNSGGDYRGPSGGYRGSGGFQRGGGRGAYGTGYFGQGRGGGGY

As to `CS(=O)(=O)Nc1cccc(NC(=O)c2cnn(-c3ccccc3)c2)c1` [Example 1], the “DHX9 Biochemical Max Inhibition” value in assay [1] is 71.6%. For the same compound, the IC50 in assay [1] (setting [3]) amounted to 0.339 µM. In addition, in assay [2], the concentration for a half-maximal effect (EC50) is greater than 30 µM.
Consider `CS(=O)(=O)Nc1cccc(NC(=O)c2ccn(-c3c(F)cccc3F)n2)c1` [Example 12], for which, in assay [1], the “DHX9 Biochemical Max Inhibition” value was determined as 83.3%. Besides, the IC50 in assay [1] (setting [3]) was 0.355 µM. In assay [2], this compound came in with an EC50 greater than 30 µM.
For the compound `Cc1cc(C)nc(-n2nc(C(=O)Nc3cccc(NS(C)(=O)=O)c3)cc2C)n1` [Example 15], the “DHX9 Biochemical Max Inhibition” value in assay [1] is listed as 70.4%. Further, in assay [1] (setting [3]), the IC50 stood at 0.579 µM. The compound also displayed an EC50 in assay [2] greater than 30 µM.
`CC(=O)c1ccc(S(=O)(=O)Nc2ccc(C(=O)Nc3cccc(NS(C)(=O)=O)c3)cc2)cc1` [Example 20]: in assay [1], the “DHX9 Biochemical Max Inhibition” value was 72%. Further, the IC50 in assay [1] (setting [3]) turned out to be 0.664 µM. In assay [2], the EC50 was greater than 30 µM.
The corresponding values for `CS(=O)(=O)Nc1cccc(NC(=O)c2ccc(N3CCCC3)cc2)c1` [Example 31] are 80.3%, 0.864 µM and greater than 30 µM.
With `CS(=O)(=O)Nc1cccc(NC(=O)c2csc(-c3nnc[nH]3)n2)c1` [Example 33], the “DHX9 Biochemical Max Inhibition” value in assay [1] amounted to 65.4%. Also, the IC50 in assay [1] (setting [3]) worked out at 1.02 µM. The same compound came in with a 50% effective concentration (EC50) in assay [2] greater than 30 µM.
`CS(=O)(=O)Nc1cccc(NC(=O)c2cccc(-n3cccn3)c2)c1` [Example 40]: in assay [1], the “DHX9 Biochemical Max Inhibition” value is 72.8%. For the same compound, in assay [1] (setting [3]), the IC50 turned out to be 0.371 µM. In assay [2], this compound yielded an EC50 greater than 30 µM.
In the case of `CS(=O)(=O)Nc1cccc(NC(=O)c2cnn(-c3ccccn3)c2)c1` [Example 41], in assay [1], the “DHX9 Biochemical Max Inhibition” value turned out to be 61.2%. For the same compound, the IC50 in assay [1] (setting [3]) came out at 0.285 µM. In addition, in assay [2], the EC50 was 27.4 µM.
The corresponding values for `CS(=O)(=O)Nc1cccc(NC(=O)c2cc(-c3cccs3)ccn2)c1` [Example 44] are 47.2%, 6.51 µM and greater than 30 µM.
Consider `CS(=O)(=O)Nc1cccc(NC(=O)c2cc(-c3cccc(C(N)=O)c3)cs2)c1` [Example 50], for which, in assay [1], the “DHX9 Biochemical Max Inhibition” value was determined as 66.5%. In addition, in assay [1] (setting [3]), the IC50 turned out to be 0.0458 µM. The EC50 in assay [2] was greater than 30 µM.
The corresponding values for `CS(=O)(=O)Nc1cccc(NC(=O)c2cc(-c3ccc(F)cc3)cs2)c1` [Example 53] are 70.4%, 0.188 µM and 22.7 µM.
On to `CS(=O)(=O)Nc1cccc(NC(=O)c2cc(C(=O)Nc3ccccc3Oc3ccccc3)cs2)c1` [Example 115], for which the “DHX9 Biochemical Max Inhibition” value in assay [1] amounted to 75%. Further, the IC50 in assay [1] (setting [3]) was found to be 0.436 µM.
The corresponding values for `CS(=O)(=O)Nc1cccc(NC(=O)c2cc(C(=O)NCc3ccc(N4CCOCC4)cc3)cs2)c1` [Example 116] are 74.5% and 0.0708 µM.
The like results for `CS(=O)(=O)Nc1cccc(NC(=O)c2cc(C(=O)Nc3ccc(Oc4ccccc4)cc3)cs2)c1` [Example 117] were, in that order, 52.7% and 0.686 µM.
As for `CC(C)Oc1ccc(NC(=O)c2csc(C(=O)Nc3cccc(NS(C)(=O)=O)c3)c2)cc1` [Example 118], in assay [1], the “DHX9 Biochemical Max Inhibition” value came to 66.2%. For the same compound, the IC50 in assay [1] (setting [3]) turned out to be 0.0994 µM.
The corresponding values for `CS(=O)(=O)Nc1cccc(NC(=O)c2cc(C(=O)Nc3cccc(OC(F)(F)F)c3)cs2)c1` [Example 120] are 70.4% and 0.0505 µM.
The corresponding values for `CC(C)Oc1cccc(NC(=O)c2csc(C(=O)Nc3cccc(NS(C)(=O)=O)c3)c2)c1` [Example 121] are 68.9% and 1.07 µM.
The corresponding values for `CS(=O)(=O)Nc1cccc(NC(=O)c2cc(C(=O)Nc3ccc(OCCN4CCOCC4)cc3)cs2)c1` [Example 122] are 69.7% and 0.196 µM.
With `CS(=O)(=O)Nc1cccc(NC(=O)c2cc(C(=O)Nc3cccc4c3CCO4)cs2)c1` [Example 123], the “DHX9 Biochemical Max Inhibition” value in assay [1] stood at 68.3%. Also, the IC50 in assay [1] (setting [3]) was 0.0592 µM.
Turning to `CS(=O)(=O)Nc1cccc(NC(=O)c2cc(C(=O)NCc3ccc(CN4CCOCC4)cc3)cs2)c1` [Example 124], the “DHX9 Biochemical Max Inhibition” value in assay [1] is 66.5%. The IC50 in assay [1] (setting [3]) was 0.182 µM.
Regarding `COc1cc(Cl)cc(NC(=O)c2csc(C(=O)Nc3cccc(NS(C)(=O)=O)c3)c2)c1` [Example 125], in assay [1], the “DHX9 Biochemical Max Inhibition” value worked out at 71.7%. The IC50 in assay [1] (setting [3]) turned out to be 0.0649 µM.
Regarding `CC(C)(C)NC(=O)c1ccc(NC(=O)c2csc(C(=O)Nc3cccc(NS(C)(=O)=O)c3)c2)cc1` [Example 127], in assay [1], the “DHX9 Biochemical Max Inhibition” value is listed as 68.3%. Further, the IC50 in assay [1] (setting [3]) was 0.115 µM.
As for `CS(=O)(=O)Nc1cccc(NC(=O)c2cc(C(=O)Nc3ccc(-c4ccncc4)cc3)cs2)c1` [Example 128], the “DHX9 Biochemical Max Inhibition” value in assay [1] was determined as 64.6%. Further, the IC50 in assay [1] (setting [3]) worked out at 0.146 µM.
For `CS(=O)(=O)Nc1cccc(NC(=O)c2cc(C(=O)Nc3cnc4ccccn34)cs2)c1` [Example 129], in assay [1], the “DHX9 Biochemical Max Inhibition” value came out at 67.2%. Moreover, in assay [1] (setting [3]), the IC50 is 0.0889 µM.
With `COc1ccc(NC(=O)c2csc(C(=O)Nc3cccc(NS(C)(=O)=O)c3)c2)cc1` [Example 130], the “DHX9 Biochemical Max Inhibition” value in assay [1] is 69.2%. Also, the IC50 in assay [1] (setting [3]) is 0.324 µM.
The like results for `Cn1c(=O)n(C)c2cc(NC(=O)c3csc(C(=O)Nc4cccc(NS(C)(=O)=O)c4)c3)ccc21` [Example 131] were, in that order, 65.8% and 0.0522 µM.
The like results for `CS(=O)(=O)Nc1cccc(NC(=O)c2cc(C(=O)Nc3cccc(-c4cccnc4)c3)cs2)c1` [Example 133] were, in that order, 70.3% and 0.171 µM.
`COCc1cccc(NC(=O)c2csc(C(=O)Nc3cccc(NS(C)(=O)=O)c3)c2)c1` [Example 134]: in assay [1], the “DHX9 Biochemical Max Inhibition” value is on record as 66.9%. In addition, the IC50 in assay [1] (setting [3]) was determined as 0.058 µM.
Turning to `CC(C)Oc1ccccc1NC(=O)c1csc(C(=O)Nc2cccc(NS(C)(=O)=O)c2)c1` [Example 135], the “DHX9 Biochemical Max Inhibition” value in assay [1] turned out to be 65.6%. Further, the IC50 in assay [1] (setting [3]) was determined as 0.211 µM.
`CS(=O)(=O)Nc1cccc(NC(=O)c2cc(C(=O)NC3CCc4ccccc43)cs2)c1` (stereo not drawn) [Example 136]: the “DHX9 Biochemical Max Inhibition” value in assay [1] is recorded as 72.9%. Besides, in assay [1] (setting [3]), the IC50 came out at 0.127 µM.
The corresponding values for `CS(=O)(=O)Nc1cccc(NC(=O)c2cc(C(=O)Nc3ccccc3CC#N)cs2)c1` [Example 138] are 76.6% and 0.116 µM.
On to `CNC(=O)c1ccc(NC(=O)c2csc(C(=O)Nc3cccc(NS(C)(=O)=O)c3)c2)cc1` [Example 139], for which the “DHX9 Biochemical Max Inhibition” value in assay [1] is reported as 68.9%. The IC50 in assay [1] (setting [3]) was determined as 0.0405 µM.
The like results for `CS(=O)(=O)Nc1cccc(NC(=O)c2cc(C(=O)NCCc3c[nH]c4ccccc34)cs2)c1` [Example 140] were, in that order, 70.1% and 0.189 µM.
`CS(=O)(=O)Nc1cccc(NC(=O)c2cc(C(=O)NCc3nc4ccccc4[nH]3)cs2)c1` [Example 141]: the “DHX9 Biochemical Max Inhibition” value in assay [1] is given as 66.3%. In addition, the IC50 in assay [1] (setting [3]) is 0.0926 µM.
As for `COc1ccc(OC)c(CCNC(=O)c2csc(C(=O)Nc3cccc(NS(C)(=O)=O)c3)c2)c1` [Example 142], the “DHX9 Biochemical Max Inhibition” value in assay [1] stood at 72.6%. Further, in assay [1] (setting [3]), the IC50 is 0.167 µM.
Take `CS(=O)(=O)Nc1cccc(NC(=O)c2cc(C(=O)Nc3ccccc3CCO)cs2)c1` [Example 143]: in assay [1], the “DHX9 Biochemical Max Inhibition” value is reported as 73.3%. The IC50 in assay [1] (setting [3]) was found to be 0.0915 µM.
As for `CS(=O)(=O)Nc1cccc(NC(=O)c2cc(C(=O)NCc3n[nH]c4ccccc34)cs2)c1` [Example 144], the “DHX9 Biochemical Max Inhibition” value in assay [1] was determined as 65.9%. For the same compound, the IC50 in assay [1] (setting [3]) turned out to be 0.146 µM.
The like results for `CS(=O)(=O)Nc1cccc(NC(=O)c2cc(C(=O)NCc3ccc4[nH]ccc4c3)cs2)c1` [Example 145] were, in that order, 67.7% and 0.105 µM.
As to `CS(=O)(=O)Nc1cccc(NC(=O)c2cc(C(=O)Nc3nc4ccccc4[nH]3)cs2)c1` [Example 146], the “DHX9 Biochemical Max Inhibition” value in assay [1] is 71.2%. The IC50 in assay [1] (setting [3]) was determined as 0.0387 µM.
The corresponding values for `Cc1nc(-c2cccc(NC(=O)c3csc(C(=O)Nc4cccc(NS(C)(=O)=O)c4)c3)c2)cs1` [Example 147] are 64.7% and 0.229 µM.
Take `CS(=O)(=O)Nc1cccc(NC(=O)c2cc(C(=O)Nc3cc(-c4ccccc4)[nH]n3)cs2)c1` [Example 148]: the “DHX9 Biochemical Max Inhibition” value in assay [1] came out at 58.2%. Besides, the IC50 in assay [1] (setting [3]) was found to be 5.36 µM.
For `CS(=O)(=O)Nc1cccc(NC(=O)c2cc(C(=O)Nc3ccc(CCO)cc3)cs2)c1` [Example 149], in assay [1], the “DHX9 Biochemical Max Inhibition” value was determined as 69.8%. Moreover, the IC50 in assay [1] (setting [3]) turned out to be 0.0507 µM.
On to `CS(=O)(=O)Nc1cccc(NC(=O)c2cc(C(=O)NCCN3CCCCC3)cs2)c1` [Example 150], for which, in assay [1], the “DHX9 Biochemical Max Inhibition” value was 68.6%. Moreover, the IC50 in assay [1] (setting [3]) was found to be 0.102 µM.
With `Cc1cc(C(=O)Nc2cccc(NS(C)(=O)=O)c2)nn1Cc1ccccc1` [Example 154, 1-benzyl-N-(3-methanesulfonamidophenyl)-5-methyl-1H-pyrazole-3-carboxamide], in assay [1], the “DHX9 Biochemical Max Inhibition” value amounted to 68.4%. The IC50 in assay [1] (setting [3]) worked out at 3.89 µM.
For the compound `CS(=O)(=O)Nc1cccc(NC(=O)c2cc(NCc3ccccc3)cs2)c1` [Example 155, 4-(benzylamino)-N-(3-(methylsulfonamido)phenyl)thiophene-2-carboxamide], the “DHX9 Biochemical Max Inhibition” value in assay [1] is given as 72.3%. Also, the IC50 in assay [1] (setting [3]) turned out to be 1.01 µM.
As to `CS(=O)(=O)Nc1cccc(NC(=O)c2cc(-c3ccccc3)cs2)n1` [Example 156, N-(6-methanesulfonamidopyridin-2-yl)-4-phenylthiophene-2-carboxamide], in assay [1], the IC50 was 1.92 µM and the “DHX9 Biochemical Max Inhibition” value came to 63.7%.
Consider `CS(=O)(=O)Nc1cccc(NC(=O)c2cc(C(=O)NCCC3CC3)cs2)c1` [Example 162], for which, in assay [1], the “DHX9 Biochemical Max Inhibition” value is 68.5%. Further, in assay [1] (setting [3]), the IC50 is 0.0811 µM.
